Data reported in BindingDB's records for patent US10343992 (Missions Therapeutics, 2019).

Target: T1, Ubiquitin carboxyl-terminal hydrolase 30 (Homo sapiens, UniProt Q70CQ3)
T1 sequence (Q70CQ3 whole entry): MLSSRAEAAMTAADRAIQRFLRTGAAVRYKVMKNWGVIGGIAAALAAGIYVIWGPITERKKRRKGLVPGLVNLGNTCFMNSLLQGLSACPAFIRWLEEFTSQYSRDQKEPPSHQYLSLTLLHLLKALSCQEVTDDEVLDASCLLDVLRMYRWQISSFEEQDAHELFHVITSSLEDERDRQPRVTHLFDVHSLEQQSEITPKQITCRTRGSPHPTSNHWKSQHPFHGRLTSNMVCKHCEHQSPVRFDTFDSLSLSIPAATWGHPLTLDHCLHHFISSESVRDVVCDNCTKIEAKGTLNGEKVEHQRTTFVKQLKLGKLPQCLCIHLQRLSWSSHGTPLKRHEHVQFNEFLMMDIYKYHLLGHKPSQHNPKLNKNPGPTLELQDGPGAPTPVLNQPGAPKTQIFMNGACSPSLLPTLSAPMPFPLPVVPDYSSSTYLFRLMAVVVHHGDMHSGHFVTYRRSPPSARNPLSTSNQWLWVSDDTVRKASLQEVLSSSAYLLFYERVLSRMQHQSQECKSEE
Assay: Biochemical Fluorescence Intensity Assay
Procedure: A typical 8-point dilution series would be 100, 30, 10, 3, 1, 0.3, 0.1, 0.03 μM final. […] USP30 was diluted in reaction buffer (40 mM Tris, pH 7.5, 0.005% Tween 20, 0.5 mg/ml BSA, 5 mM beta-mercaptoethanol) to the equivalent of 0.001 μl/well and 10 μl of diluted USP30 was added to the compound. Enzyme and compound were incubated for 30 min at room temp. […] Reactions were read immediately after addition of substrate and following a 2 h incubation at room temperature.

Structure (SMILES) | IC50
Cn1ccc(-c2ccc(NC(=O)N3CC[C@@H]4CN(C#N)C[C@@H]43)c(F)c2)n1 [US10343992, Example 245] | in the range around 550 nM
CN(C(=O)CC1=NC2C=C(c3cnn(C)c3)N=CC2N1)C1CCN(C#N)C1 (configuration not stated) [US10343992, Example 263] | in the range around 550 nM
